Patent publication US11679114B2, “Progestogen-only oral contraception” (Navad Life Sciences Pte, priority 2021, dated 2023)
Where two headings read alike, the source gives them in different places.

Tests used:
Type in all cases: in vivo, human
[1] = Multiple-dose pharmacokinetics, plasma LNG concentrations on treatment day 55 (±1); details: for Cmax / AUC(0-t): female, human, plasma, po
Protocol: Serum SHBG concentrations were determined after ovulation in the pre-treatment cycle, on treatment day 55 (±1) and at the end-of-study examination. Multiple-dose PK parameters were investigated in approximately 15 subjects per dose group, 5 of them having a BMI≥30 kg/m^2. Blood samples for LNG determination were taken on treatment day 55 (±1) pre-dose and 0.5, 1, 2, 3, 4, 6 and 24 hours after dosing.
Plasma LNG concentrations were determined by a validated liquid chromatography hyphenated with tandem mass spectrometry method (ACC, Leidersbach, Germany). PK parameters were derived by means of non-compartmental analysis. Analysis of Variance (ANOVA) was used as basis for the calculation of 90% confidence intervals; point estimates and confidence intervals for area under the curve (AUC) and maximum concentration (Cmax) values and comparison of treatments which were calculated by parametric analysis. Descriptive statistics for each treatment group and for subgroups with BMI<30 and ≥30 kg/m^2 were calculated.

healthy, cyclic women [2] = assay: Vaginal bleeding pattern (daily record); details: excluding the first 7 treatment days
Protocol: The tablets prepared in Example 1 were tested in a single-center, open-label, adaptive design study to evaluate the influence on hormonal and ovarian function and vaginal bleeding pattern of different higher dosages of LNG administered once daily for 28 days over two consecutive treatment cycles in healthy, cyclic women.
Throughout the study, subjects kept a daily record of vaginal bleeding. During the treatment period, they also documented the time of study medication intake.

healthy, cyclic women [3] = assay: Adverse events and tolerability
Protocol: At every visit, the subjects were questioned for adverse events and use of concomitant medication. Safety laboratory and pregnancy tests were performed at regular intervals during the study. Physical examinations were performed at screening and end of study.

healthy, cyclic women [4] = assay: Return of ovulation after the last treatment day; details: for Ovulation observed, average days after last treatment: post-treatment period
Protocol: After the last treatment day, assessments were continued every three (±1) days until ovulation was observed, followed by P measurements 2 (±1) and, if necessary, 4 (±1) days after ovulation. An end-of-study examination was performed 6 (±1) days after ovulation, or on day 30 (±1) in case no ovulation had been observed until then.

C#C[C@]1(O)CC[C@H]2[C@@H]3CCC4=CC(=O)CC[C@@H]4[C@H]3CC[C@@]21CC (racemic) [LNG, levonorgestrel]
Cmax ([1]; 0.095 mg per day, 0.095 mg per day oral over 55 ± 1 consecutive days, entire treatment group, read-out: Cmax, ss, Geometric Mean): 1.55 ng/mL
Cmax ([1]; 0.095 mg per day, 0.095 mg per day oral over 55 ± 1 consecutive days, entire treatment group, read-out: Cmax, ss, Mean): 1.65 ng/mL
Cmax ([1]; 0.095 mg per day, 0.095 mg per day oral over 55 ± 1 consecutive days, entire treatment group, read-out: Cmax, ss, Median): 1.63 ng/mL
AUC(0-t) ([1]; 0.095 mg per day, 0.095 mg per day oral over 55 ± 1 consecutive days, subgroup BMI < 30 kg/m2, read-out: AUC0-24, ss, Geometric mean): 14 ng·h/mL
Cmax ([1]; 0.095 mg per day, 0.095 mg per day oral over 55 ± 1 consecutive days, subgroup BMI < 30 kg/m2, read-out: Cmax, ss, Geometric mean): 1.83 ng/mL
AUC(0-t) ([1]; 0.095 mg per day, 0.095 mg per day oral over 55 ± 1 consecutive days, subgroup BMI ≥ 30 kg/m^2, read-out: AUC0-24, ss, Geometric mean): 9.2 ng·h/mL
Cmax ([1]; 0.095 mg per day, 0.095 mg per day oral over 55 ± 1 consecutive days, subgroup BMI ≥ 30 kg/m^2, read-out: Cmax, ss, Geometric mean): 1.05 ng/mL
AUC(0-t) ([1]; 0.115 mg per day, 0.115 mg per day oral over 55 ± 1 consecutive days, entire treatment group, read-out: AUC0-24, ss, Geometric Mean): 13.8 ng·h/mL
AUC(0-t) ([1]; 0.115 mg per day, 0.115 mg per day oral over 55 ± 1 consecutive days, entire treatment group, read-out: AUC0-24, ss, Mean): 14.8 ng·h/mL
AUC(0-t) ([1]; 0.115 mg per day, 0.115 mg per day oral over 55 ± 1 consecutive days, entire treatment group, read-out: AUC0-24, ss, Median): 12.9 ng·h/mL
Cmax ([1]; 0.115 mg per day, 0.115 mg per day oral over 55 ± 1 consecutive days, entire treatment group, read-out: Cmax, ss, Geometric Mean): 1.67 ng/mL
Cmax ([1]; 0.115 mg per day, 0.115 mg per day oral over 55 ± 1 consecutive days, entire treatment group, read-out: Cmax, ss, Mean): 1.79 ng/mL
Cmax ([1]; 0.115 mg per day, 0.115 mg per day oral over 55 ± 1 consecutive days, entire treatment group, read-out: Cmax, ss, Median): 1.81 ng/mL
AUC(0-t) ([1]; 0.115 mg per day, 0.115 mg per day oral over 55 ± 1 consecutive days, subgroup BMI < 30 kg/m2, read-out: AUC0-24, ss, Geometric mean): 16.3 ng·h/mL
Cmax ([1]; 0.115 mg per day, 0.115 mg per day oral over 55 ± 1 consecutive days, subgroup BMI < 30 kg/m2, read-out: Cmax, ss, Geometric mean): 2.03 ng/mL
AUC(0-t) ([1]; 0.115 mg per day, 0.115 mg per day oral over 55 ± 1 consecutive days, subgroup BMI ≥ 30 kg/m^2, read-out: AUC0-24, ss, Geometric mean): 9.32 ng·h/mL
Cmax ([1]; 0.115 mg per day, 0.115 mg per day oral over 55 ± 1 consecutive days, subgroup BMI ≥ 30 kg/m^2, read-out: Cmax, ss, Geometric mean): 1.05 ng/mL
AUC(0-t) ([1]; 0.135 mg per day, 0.135 mg per day oral over 55 ± 1 consecutive days, entire treatment group, read-out: AUC0-24, ss, Geometric Mean): 16.8 ng·h/mL
AUC(0-t) ([1]; 0.135 mg per day, 0.135 mg per day oral over 55 ± 1 consecutive days, entire treatment group, read-out: AUC0-24, ss, Mean): 17.5 ng·h/mL
AUC(0-t) ([1]; 0.135 mg per day, 0.135 mg per day oral over 55 ± 1 consecutive days, entire treatment group, read-out: AUC0-24, ss, Median): 16.9 ng·h/mL
Cmax ([1]; 0.135 mg per day, 0.135 mg per day oral over 55 ± 1 consecutive days, entire treatment group, read-out: Cmax, ss, Geometric Mean): 1.92 ng/mL
Cmax ([1]; 0.135 mg per day, 0.135 mg per day oral over 55 ± 1 consecutive days, entire treatment group, read-out: Cmax, ss, Mean): 2.01 ng/mL
Cmax ([1]; 0.135 mg per day, 0.135 mg per day oral over 55 ± 1 consecutive days, entire treatment group, read-out: Cmax, ss, Median): 1.93 ng/mL
AUC(0-t) ([1]; 0.135 mg per day, 0.135 mg per day oral over 55 ± 1 consecutive days, subgroup BMI < 30 kg/m2, read-out: AUC0-24, ss, Geometric mean): 17.6 ng·h/mL
Cmax ([1]; 0.135 mg per day, 0.135 mg per day oral over 55 ± 1 consecutive days, subgroup BMI < 30 kg/m2, read-out: Cmax, ss, Geometric mean): 2.14 ng/mL
AUC(0-t) ([1]; 0.135 mg per day, 0.135 mg per day oral over 55 ± 1 consecutive days, subgroup BMI ≥ 30 kg/m^2, read-out: AUC0-24, ss, Geometric mean): 15.3 ng·h/mL
Cmax ([1]; 0.135 mg per day, 0.135 mg per day oral over 55 ± 1 consecutive days, subgroup BMI ≥ 30 kg/m^2, read-out: Cmax, ss, Geometric mean): 1.52 ng/mL
Time at which maximum plasma LNG values were reached after dosing ([1]; study drug administration on day 55±1, all dosages): 1 h
Number of days with bleeding or spotting during treatment, mean (±SD) (healthy, cyclic women [2]; LNG 0.095 mg per day): 12.3 (±8.6) days
Number of days with bleeding or spotting during treatment, median (healthy, cyclic women [2]; LNG 0.095 mg per day): 11.5 days
Number of days with bleeding or spotting during treatment, mean (±SD) (healthy, cyclic women [2]; LNG 0.115 mg per day): 14.5 (±9.4) days
Number of days with bleeding or spotting during treatment, median (healthy, cyclic women [2]; LNG 0.115 mg per day): 14.5 days
Number of days with bleeding or spotting during treatment, mean (±SD) (healthy, cyclic women [2]; LNG 0.135 mg per day): 16.0 (±11.5) days
Number of days with bleeding or spotting during treatment, median (healthy, cyclic women [2]; LNG 0.135 mg per day): 13.0 days
n acne events, possibly IMP related (healthy, cyclic women [3]; 0.095 mg LNG, n subjects 30): 3
n acne events, possibly IMP related (healthy, cyclic women [3]; 0.115 mg LNG, n subjects 29): 4
n acne events, possibly IMP related (healthy, cyclic women [3]; 0.135 mg LNG, n subjects 29): 4
Tolerability of the study medication (healthy, cyclic women [3]; LNG 0.095, 0.115 or 0.135 mg per day for 56 days): well tolerated
Ovulation observed, average days after last treatment (healthy, cyclic women [4]; LNG 0.095 mg per day for 56 days): 15.5 days
Ovulation observed, average days after last treatment (healthy, cyclic women [4]; LNG 0.115 mg per day for 56 days): 14.1 days
Ovulation observed, average days after last treatment (healthy, cyclic women [4]; LNG 0.135 mg per day for 56 days): 12.8 days
P concentrations after post-treatment ovulation (healthy, cyclic women [4]; majority of subjects, within the 30-day post-treatment period): ≥ 16 nmol/L
